Measurements reported in patent US20240033246A1, “COMPOUNDS FOR TREATING EYE DISEASES AND DISORDERS” (The State of Israel, Ministry of Agriculture & Rural …, priority 2020, published 2024).

Assays:
[1] = system: retinal cone photoreceptors; assay: Eye cup cultures stained for M-cone opsin (cone photoreceptor cell death in vitro); format: cell-based; conditions: 8 nM TTF in growth media, 18 hours, eye cups of 21-day old RPE65/rd12 mice, vs vehicle (0.0115% DMSO)
Procedure: Eyes were obtained from 21-day old RPE65/rd12 mice, and the posterior segment was separated from the cornea, the lens, the iris, and the ciliary body under a surgical microscope. The eye cups were placed onto a microporous membrane (30 mm in diameter; Millicell-CM; Millipore, Bedford, MA) with the ganglion cell layer (GCL) facing up and the sclera facing the filter in a six-well culture plate. Each well contained 1 ml of culture medium consisting of 50% minimum essential medium/HEPES (Sigma, St. Louis, MO), 25% HBSS (Invitrogen, USA), and 25% heat inactivated fetal bovine serum (Invitrogen, USA) supplemented with 200 μM L-glutamine and 5.75 mg/ml glucose and 8 nM natural TTF (nTTF) or synthetic TTF (sTTF) or same volume of vehicle solution (0.0115% DMSO, control). The eye cups were maintained in culture at 37° C., 5% C02 incubator for 18 hours.
The eye cups were fixed with 4% paraformaldehyde (PFA) and embedded in sucrose for cryopreservation. […]
Sections from these eye cups were stained with antibodies directed against M-cone opsin (Milipore, USA) by incubating the sections with antibodies diluted 1:100 in 1% BSA (Sigma) for 16 hrs at 4° C. followed by extensive washing in PBS and 1 hour incubation with 488-AffiniPure Donkey Anti-Mouse IgG antibody (Jackson Immuno Research) at room temperature. […] The number of positively stained cells/mm retina was recorded. […]

[2] = TTF eye drops crossing the corneal barrier, HPLC of anterior chamber fluids; format: in vivo; conditions: eye drops 12.5 mg/ml in DMSO, rabbit
Procedure: TTF eye drops (12.5 mg/ml=34.7 mM in DMSO) or vehicle (DMSO) were dropped every 10 seconds on rabbit eyes (10 eye drops of 50 μL per eye−0.5 mL total volume). The eye fluids were collected 45 minutes or 3 hours later. About 100 microliters of anterior chamber fluids were collected from each eye. The eye fluids from both eyes of the same rabbit were pooled and the amount of TTF that penetrated the cornea was determined by IPLC analysis. Twenty microliters of pooled eye fluids were filtered and injected into an Agilent UIHPLC Infinity II 1290 device equipped with a Kinetex 5 μm EVO C18 column (250*4.6 mm). Running conditions were as follows: a 10-minute gradient was delivered at a flow rate of 1 mL/min: 5 minutes in a binary mobile phase which consisted of 0.5% acetic acid (in distilled water), and 5 minutes in acetonitrile in DDW. The detection was performed at a wavelength of 350 nm since, in eye fluids taken from naive rabbits or rabbits given eye drops containing DMSO only, there was no background at 350 nm interfering with the measurement. Under these conditions, the retention time of TTF is 5.086 minutes.

microglial cells = assay: Microglial activation and migration into the sub retina, Iba-1 staining of retina flat mounts; format: in vivo, RPE65/rd12 mice; conditions: eye drops 12.5 mg/ml TTF in DMSO twice daily, 6 days/week, 3 weeks; n=10; p=0.0063 vs placebo
Procedure: Eyes were lightly fixed in 4% PFA. The cornea, iris and lens were removed, the neuro-retina was peeled off and the RPE flat mount was incubated with Iba-1 antibodies (Wako chemicals, USA, 1:200 in PBS and 0.1% triton-X) for 16 hours at 4° C., followed by incubation with secondary Alexa Fluor® 488-AffiniPure Donkey Anti-Mouse IgG antibody (Jackson Immuno Research; USA, 1:400 in PBS with 0.2% DAPI) for 2 hours at room temperature. Samples were visualized using a fluorescent microscope (Olympus BX51) and recorded using the Olympus DP71 camera.
3 weeks old RPE65/rd12 mice were treated twice daily (6 days/week) for 3 weeks with eye drops containing 12.5 mg/ml (34.7 mM) TTF in DMSO (10pl/eye drop) or vehicle alone (DMSO). Each treatment consisted of one eye drop. Retina flat mounts of the treated and the control RPE65/rd12 mice were prepared as described above and stained for the microglial specific marker Iba-1.

IL-1β = IL-1β concentration in retinal lysates (ELISA); format: in vivo, RPE65/rd12 mice; conditions: eye drops 12.5 mg/ml TTF in DMSO twice daily, 6 days/week, 3 weeks; vs vehicle
Procedure: 3 weeks old RPE65/rd12 mice were treated twice daily (6 days/week) for 3 weeks with eye drops containing 12.5 mg/ml (34.7 mM) TTF in DMSO (10p1/eye drop) or vehicle alone (DMSO).
Each pair of retinas from the same mouse was homogenized in the same tube in 120 μl lysis buffer containing 10 mM TRIS pH 7.5, 100 mM NaCl, 1 mM EDTA, and 0.01% TRITON X-100. Protein concentration in each sample was determined in duplicates using a commercial kit: Pierce™ BCA Protein Assay Kit (23227), Thermo Fisher Scientific, IL, USA. IL-1β levels were tested using a commercial sandwich ELISA kit: Mouse IL-1 beta/IL-1F2 DuoSet ELISA (DY401). R&D Systems, Inc., MN, USA.

retinal photoreceptors = assay: TUNEL staining of photoreceptor layer (photoreceptor apoptosis); format: in vivo, RPE65/rd12 mice; conditions: eye drops 12.5 mg/ml TTF in DMSO twice daily, 6 days/week, 3 weeks; n=7; p=0.0013 vs placebo
Procedure: 3 weeks old RPE65/rd12 mice were treated twice daily (6 days/week) for 3 weeks with eye drops containing 12.5 mg/ml (34.7 mM) TTF in DMSO (10 μl/eye drop) or vehicle alone (DMSO).
Mice were euthanized using C02, the eyes were obtained and fixed in 10% formalin. Frozen sections were stained with TUNEL-TMR kit following manufacturer's instructions. The number of TUNEL positive nuclei in the outer nuclear layer was counted as well as the length of retinal sections. Results are shown in FIG. 6 as the number of TUNEL positive nuclei/mm retina.

retinal function = assay: Dark-adapted electroretinogram (ERG), retinal function; format: in vivo, RPE65/rd12 mice; conditions: eye drops 12.5 mg/ml TTF twice daily, 6 days/week, 12 weeks; n=6; vs placebo eye drops
Procedure: (§1) 3 weeks old RPE65/rd12 mice were treated twice daily (6 days/week) for 12 weeks with eye drops (10p1/eye drop) containing 12.5 mg/ml (34.7 mM) TTF (n=6) or vehicle alone (DMSO, n=6).
For dark adapted ERG, the mice were placed in total darkness for at least 12 h prior to examination. Animals were anesthetized with intraperitoneal injection containing 75 mg/kg ketamine and 10 mg/kg xylazine. Pupils were dilated with topical 1% tropicamide and 10% phenylephrine HCl. ERGs were recorded from both eyes simultaneously, using golden wire loop electrodes positioned on each cornea. Chloride silver electrodes were inserted subcutaneously near the temporal canthi as reference. An additional ground electrode was placed on the tail. Tests were performed under dark adapted (scotopic), and light adapted (photopic) conditions. Five light stimuli at increasing intensities were used (0.0023, 0.25, 2.4, 4.4, 23.5 cd-s/m2). For dark adapted ERG, responses were averaged with stimulus intervals of 1 to 30 s depending on the stimulus light intensity.

[3] = Side effects after daily TTF eye drops (general health, retinal and corneal structure); format: in vivo; conditions: 12 weeks of daily treatment with TTF eye drops
Procedure: as §1

SMILES: COc1cc(-c2oc3cc(OC)c(OC)c(O)c3c(=O)c2O)ccc1O [TTF, 3,5,4′-trihydroxy-6,7,3′-trimethoxyflavone]
- cone photoreceptor cell death in cultures of retinas [1]: attenuates cone photoreceptor cell death
- crossing of the corneal barrier / penetration into the eye ([2]; 10 drops of 50 μL per eye, anterior chamber fluids): can cross the corneal barrier and penetrate the eye
- time of maximal concentration of TTF in eye fluids after eye drops instillation ([2]; fluids collected at 45 minutes or 3 hours): 45 min
- infiltrating subretinal microglia (mean±SD) (microglial cells): 42±14 microglia cells/retina
- IL-1β concentration in the retina (IL-1β): reduced
- TUNEL positive cells in the photoreceptor layer (mean±SE) (retinal photoreceptors): 2±0.4 apoptotic cells/mm retina
- maximal dark-adapted ERG a-wave amplitude (retinal function): significantly higher
- maximal dark-adapted ERG b-wave amplitude (retinal function): significantly higher
- side effects (general health, retinal and corneal structure) [3]: no side effects were observed
